PMC8677862, “Substrate binding modes of purine and pyrimidine nucleotides to human ecto-5′-nucleotidase (CD73) and inhibition by their bisphosphonic acid derivatives” (Purinergic Signalling, 2021)
“And” between values parts separate entries of the source, which are not always exact repeats. Equal entries are not always repeated. Structures can show the parent of a compound that is named as a salt. Where two headings read alike, the source gives them in different places. Blank lines part the entries; values can stand above or below the compound they belong to.

What was measured:
CD73 [1] = target: T1, CD73 (Homo sapiens, UniProt P21589, K145S/K147S/K478S/N311D/N333D/N403D/N53D/T376A); assay: Crystallographic fragment screening by crystal soaking, open form of CD73; format: binding
T1 construct: His6 (C); made in house
T1 sequence (P21589 27-549 N53D/K145S/K147S/N311D/N333D/T376A/N403D/K478S limits assumed): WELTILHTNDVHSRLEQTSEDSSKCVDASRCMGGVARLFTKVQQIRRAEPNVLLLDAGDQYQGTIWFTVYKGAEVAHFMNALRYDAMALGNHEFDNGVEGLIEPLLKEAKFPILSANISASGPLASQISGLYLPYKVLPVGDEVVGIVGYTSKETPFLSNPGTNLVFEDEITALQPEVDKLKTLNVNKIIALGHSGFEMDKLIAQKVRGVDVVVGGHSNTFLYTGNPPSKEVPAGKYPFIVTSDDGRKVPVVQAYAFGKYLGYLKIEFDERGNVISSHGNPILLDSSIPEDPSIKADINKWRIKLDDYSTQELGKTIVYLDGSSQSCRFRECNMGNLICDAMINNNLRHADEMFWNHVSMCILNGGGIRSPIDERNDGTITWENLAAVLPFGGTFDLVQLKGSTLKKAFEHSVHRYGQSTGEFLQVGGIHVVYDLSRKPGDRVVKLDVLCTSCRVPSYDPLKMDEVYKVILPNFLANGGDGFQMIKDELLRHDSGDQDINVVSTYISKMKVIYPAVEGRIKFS
Method: Purified CD73 was concentrated to 7 mg/mL, and hanging drop crystallizations were set up versus 100 mM Tris pH 7.8 and 10% PEG6000, using equal amounts of protein and reservoir solution. Crystallisation experiments were carried out at 19 °C. Following crystal formation (1–2 days), the crystals were transferred to soaking solution containing reservoir solution with additional commercially available nucleotides or fragments (see Table S1) at concentrations between 2 and 100 mM. Crystals were then transferred to cryo solution containing an additional 20% glycerol, soaked for ~ 2–5 min and flash frozen in liquid nitrogen.
X-ray data collection was carried out at 100 K using a wavelength of 0.91841 Å on beamline 14.1 of the Berlin Synchrotron (BESSY, Berlin, Germany) equipped with a PILATUS 6 M detector [43]. All datasets were indexed, integrated, scaled and converted to structure factor amplitudes using XDSAPP [44] and AIMLESS [45]. The crystals belong to crystal form II of CD73 (pdb id 4h1y), which was used as a starting model for refinement. Coot and REFMAC5 [47] were used for model building and refinement. The final structures were validated using PROCHECK [48] and outliers in the Ramachandran plot were checked manually.
The HZB fragment library used for this work contains 102 compounds [41]. […] The presence of 12 compounds containing a nucleoside moiety in the fragment library contributed to the high hit rate of 23.5%.

CD73 [2] = conditions: competitive inhibitor of CD73, cited from earlier work
CD73 [3] = conditions: cited from earlier work; for Km: AMP as substrate; for specific activity: AMP; for turnover rate: substrate of CD73
CD73 [4] = target: T1, CD73; assay: Michaelis–Menten kinetics of CD73-mediated AMP hydrolysis, malachite green assay; format: biochemical; conditions: AMP 5-200 μM, 1.25 ng CD73
Method: In this study, enzyme activity and inhibition data was characterised using a modified malachite green assay. Each assay consisted of reaction buffer A (50 mM Tris–HCl pH 7.5, 100 mM NaCl, 1 mM MgCl2) to which the appropriate substrate and/or inhibitors (see Table S1) were added. Dissolved compounds were immediately used for the inhibition assays. The reactions were generally initiated by the addition of protein. The protein concentrations, substrates and inhibitors used for the various experiments are detailed below. In all experiments, reactions were monitored over a 10-min period during which samples were taken at regular intervals. At each desired time point, a malachite green/molybdate (1:1) solution was added to the sample, which simultaneously terminated the assay and also allowed the detection of the produced phosphate ions. These reaction mixtures were incubated at 25 °C for 25 min, followed by measurement of the absorbance at 620 nm. […]
The specific activity (μmol Pi/min/mg protein) was calculated from the initial reaction rates and was used to determine when the protein refolding process had reached completion. […] Kinetic values were determined by fitting the Michaelis–Menten equation to the initial reaction rates using GraphPad Prism (GraphPad Software, La Jolla, CA, USA). […]

[5] = set-up: method as in earlier work; conditions: last proton on the β-phosphonate group; cited from earlier work
rat CD73 [6] = conditions: cited from earlier work
CD73 [7] = target: T1, CD73; assay: Substrate preference of CD73 for nucleoside monophosphates, malachite green assay; format: biochemical; conditions: 1 mM substrate; for percentage activity relative to AMP (100%): 1.25 ng CD73; for decrease in absolute activity (relative to AMP) compared with the ribonucleotide equivalent: deoxyribo form vs ribo form
Method: Each assay consisted of reaction buffer A (50 mM Tris–HCl pH 7.5, 100 mM NaCl, 1 mM MgCl2) to which the appropriate substrate and/or inhibitors (see Table S1) were added. Dissolved compounds were immediately used for the inhibition assays. The reactions were generally initiated by the addition of protein. The protein concentrations, substrates and inhibitors used for the various experiments are detailed below. In all experiments, reactions were monitored over a 10-min period during which samples were taken at regular intervals. At each desired time point, a malachite green/molybdate (1:1) solution was added to the sample, which simultaneously terminated the assay and also allowed the detection of the produced phosphate ions. These reaction mixtures were incubated at 25 °C for 25 min, followed by measurement of the absorbance at 620 nm. A standard curve (0–50 μM orthophosphate) was performed prior to each assay and was used to calculate the phosphate concentration. All measurements were carried out in triplicate. […] The specific activity (μmol Pi/min/mg protein) was calculated from the initial reaction rates and was used to determine when the protein refolding process had reached completion. […] Kinetic values were determined by fitting the Michaelis–Menten equation to the initial reaction rates using GraphPad Prism (GraphPad Software, La Jolla, CA, USA).

rat CD73 [8] = assay: Literature inhibition of rat CD73; format: biochemical; conditions: rat CD73, from literature Ki values
CD73 [9] = target: T1, CD73; assay: CD73 inhibition, malachite green assay; format: biochemical
Method: In this study, enzyme activity and inhibition data was characterised using a modified malachite green assay. Each assay consisted of reaction buffer A (50 mM Tris–HCl pH 7.5, 100 mM NaCl, 1 mM MgCl2) to which the appropriate substrate and/or inhibitors (see Table S1) were added. Dissolved compounds were immediately used for the inhibition assays. The reactions were generally initiated by the addition of protein. The protein concentrations, substrates and inhibitors used for the various experiments are detailed below. In all experiments, reactions were monitored over a 10-min period during which samples were taken at regular intervals. At each desired time point, a malachite green/molybdate (1:1) solution was added to the sample, which simultaneously terminated the assay and also allowed the detection of the produced phosphate ions. These reaction mixtures were incubated at 25 °C for 25 min, followed by measurement of the absorbance at 620 nm. A standard curve (0–50 μM orthophosphate) was performed prior to each assay and was used to calculate the phosphate concentration. All measurements were carried out in triplicate.
To study the inhibition kinetics of CD73 against a panel of commercially available nucleotide-diphosphate analogues (AMPCP, GMPCP, dUMPCP and CMPCP; see Table S1), their IC50 values were determined. In these tests, CD73 protein (1.25 ng) was incubated in reaction buffer A containing various inhibitor concentrations (0.015, 0.031, 0.061, 0.12, 0.24, 0.49, 0.98, 1.95, 3.91, 7.81, 15.62, 31.25, 62.5, 125, 250 and 500 μM). […] Dose–response curves were plotted in GraphPad Prism (GraphPad Prism Software, La Jolla, CA, USA), and the inflection point of each curve was used to determine the IC50 value of each inhibitor. The IC50 values were then used to calculate the Ki value of each inhibitor using the Cheng-Prusoff equation [51].

[10] = calculated from IC50 with the Cheng-Prusoff equation, human deglycosylated CD73 construct, read-out: Ki

SMILES: O=[N+]([O-])c1ccc(O)c(O)c1 [4-nitrocatechol]
binding to the nucleoside binding site (crystal structure) (CD73 [1]): did bind to the nucleoside binding site

SMILES: Nc1ncnc2c1ncn2[C@@H]1O[C@H](COP(=O)(O)OP(=O)(O)O)[C@@H](O)[C@H]1O [ADP]
Ki (CD73 [2]; ref 29): 3880 nM | Ki (CD73 [2]; ref 32): 82 nM | Ki (CD73 [2]; ref 33): 910 nM

SMILES: Nc1ncnc2c1ncn2[C@@H]1O[C@H](COP(=O)(O)CP(=O)(O)O)[C@@H](O)[C@H]1O [AMPCP, Adenosin 5'-[α,β-methylene] diphosphoric acid]
pKa [5]: 8.3 | Ki (rat CD73 [6]): 197 ± 5 nM

SMILES: Nc1ncnc2c1ncn2[C@@H]1O[C@H](COP(=O)(O)OP(=O)(O)OP(=O)(O)O)[C@@H](O)[C@H]1O [ATP]
Ki (CD73 [2]; ref 32): 1500 nM | Ki (CD73 [2]; ref 33): 8900 nM

SMILES: Nc1nc2c(ncn2[C@@H]2O[C@H](COP(=O)(O)CP(=O)(O)O)[C@@H](O)[C@H]2O)c(=O)[nH]1 [GMPCP, α,β-Methyleneguanosine 5′-diphosphate sodium salt]
IC50 (CD73 [9]): 1420 ± 20 nM | Ki (CD73 [9]): 135 ± 2.7 nM

SMILES: NC(=O)c1ccc[n+]([C@@H]2O[C@H](COP(=O)([O-])OP(=O)(O)OC[C@H]3O[C@@H](n4cnc5c(N)ncnc54)[C@H](O)[C@@H]3O)[C@@H](O)[C@H]2O)c1 [NAD^+]
turnover rate (CD73 [3]): 5 nmol/min/mg

SMILES: O=c1ccn([C@@H]2O[C@H](COP(=O)(O)CP(=O)(O)O)[C@@H](O)[C@H]2O)c(=O)[nH]1 [UMPCP]
Ki (rat CD73 [6]): 1830 ± 530 nM

SMILES: Cn1c(=O)c2c(ncn2C)n(C)c1=O [caffeine]
binding to the nucleoside binding site (crystal structure) (CD73 [1]): did bind to the nucleoside binding site

SMILES: NC(=O)c1ccc[n+]([C@@H]2O[C@H](COP(=O)([O-])O)[C@@H](O)[C@H]2O)c1 [nicotinamide mononucleotide]
turnover rate (CD73 [3]): 110 nmol/min/mg

Further lines, with some results ahead:

binding to the nucleoside binding site (crystal structure) (CD73 [1]): did bind to the nucleoside binding site
SMILES: O=c1[nH]cc(I)c(=O)[nH]1 [5-iodouracil]

Vmax (CD73 [4]): 301.2 ± 2.9 U/mg
SMILES: Nc1ncnc2c1ncn2[C@@H]1O[C@H](COP(=O)(O)O)[C@@H](O)[C@H]1O [AMP, Adenosine 5'-monophosphate]
Km (CD73 [3]; same construct after refolding): 6.6 µM and 7 µM | Km (CD73 [3]; ref 8): 1 to 50 µM | Km (CD73 [3]; ref 29): 59 µM | specific activity (CD73 [3]; human CD73 purified from an adenocarcinoma cell line): 130 U/mg | specific activity (CD73 [3]; this construct after refolding): 577.2 U/mg | turnover rate (CD73 [3]): 856 nmol/min/mg

percentage activity relative to AMP (100%) (CD73 [7]): 73.4%
SMILES: Nc1ccn([C@@H]2O[C@H](COP(=O)(O)O)[C@@H](O)[C@H]2O)c(=O)n1 [CMP, Cytidine 5′-monophosphate]

ratio Ki (CMPCP)/Ki (AMPCP) (rat CD73 [8]): 4.6 | Ki (CD73 [9]; [10]): 304 ± 5.8 nM | ratio Ki (CMPCP)/Ki (AMPCP) (CD73 [9]; human CD73 construct of this work): 5.1 | IC50 (CD73 [9]; read-out: IC50): 3200 ± 20 nM
SMILES: Nc1ccn([C@@H]2O[C@H](COP(=O)(O)CP(=O)(O)O)[C@@H](O)[C@H]2O)c(=O)n1 [CMPCP, Cytidine-5'-[(α,β)-methyleno]diphosphate, Sodium salt]
Ki (rat CD73 [6]): 898 ± 63 nM

percentage activity relative to AMP (100%) (CD73 [7]): 33.2%
SMILES: Nc1nc2c(ncn2[C@@H]2O[C@H](COP(=O)([O-])[O-])[C@@H](O)[C@H]2O)c(=O)[nH]1.[Na+].[Na+] [GMP, Guanosin-5'-monophosphat Dinatriumsalz]

percentage activity relative to AMP (100%) (CD73 [7]): 87.1%
SMILES: O=c1ccn([C@@H]2O[C@H](COP(=O)([O-])[O-])[C@@H](O)[C@H]2O)c(=O)[nH]1.[Na+].[Na+] [UMP, Uridin-5'-Monophosphate Dinatriumsalz]

decrease in absolute activity (relative to AMP) compared with the ribonucleotide equivalent (CD73 [7]): 28.8%
SMILES: Nc1ncnc2c1ncn2[C@H]1C[C@H](O)[C@@H](COP(=O)(O)O)O1 [dAMP, 2′-Deoxyadenosine 5′-monophosphate]

percentage activity relative to AMP (100%) (CD73 [7]): 47.6%
SMILES: Nc1ccn([C@H]2C[C@H](O)[C@@H](COP(=O)(O)O)O2)c(=O)n1 [dCMP, 2′-Deoxycytidine 5′-monophosphate]

percentage activity relative to AMP (100%) (CD73 [7]): 4.8% | decrease in absolute activity (relative to AMP) compared with the ribonucleotide equivalent (CD73 [7]): 28.4%
SMILES: Nc1nc2c(ncn2[C@H]2C[C@H](O)[C@@H](COP(=O)(O)O)O2)c(=O)[nH]1 [dGMP, 2′-Deoxyguanosine 5′-monophosphate]

percentage activity relative to AMP (100%) (CD73 [7]): 49.4% | binding to the nucleoside binding site (crystal structure) (CD73 [1]): only low occupancy binding
SMILES: Cc1cn([C@H]2C[C@H](O)[C@@H](COP(=O)([O-])[O-])O2)c(=O)[nH]c1=O.[Na+].[Na+] [dTMP, Thymidine 5'-Monophosphate Natriumsalz]

Ki (CD73 [9]; [10]): 374 ± 6.9 nM | loss in affinity (CD73 [9]; comparison between CMPCP and dUMPCP): 1.2 fold | IC50 (CD73 [9]; read-out: IC50): 3940 ± 10 nM
SMILES: O=c1ccn([C@H]2C[C@H](O)[C@@H](COP(=O)(O)CP(=O)(O)O)O2)c(=O)[nH]1 [dUMPCP, 2'-Deoxyuridine-5'-[(α,β)-methyleno]diphosphate, Sodium salt]

binding to the nucleoside binding site (crystal structure) (CD73 [1]): did bind to the nucleoside binding site
SMILES: Cc1cc2nc3c(=O)[nH]c(=O)nc-3n(C[C@H](O)[C@H](O)[C@H](O)CO)c2cc1C [riboflavin]
